Source: patent publication US5235061A, “Fungicidal (1H-1,2,4-triazolyl)disilaalkanes” (priority 1991, dated 1993)

Columns and labels:
Assay in all cases: In vitro percent disease control (radii of spore growth on agar)
Format in all cases: cell-based
[1] = tested on: Rhizoctonia solani; conditions: Rhizoctonia solani, read-out: % controlled, Rhy. so.
Description: (§1) The compounds of this invention were dissolved respectively in acetone in an amount equal to 10% of the final volume and then in purified water at the concentration of 100 ppm and 50 ppm.
(§2) Each of the solution was mixed with potato-sucrose-agar medium in a 6" petri dish and one of the fungi was spotted at the center of the dish. The dish was incubated in growth room for several days. The percent disease control was derived from the radii of spore growth. The screening tests in vitro condition are well-known to those skilled in the art.
(§3) The following fungi were used for the screening.
7) Rhi.so.; Rhizoctonia solani

[2] = tested on: Pyricalaria oryzae; conditions: for inhibition of growth at 50 ppm: read-out: % controlled, Py. or., 50 ppm; for inhibition of growth at 100 ppm: read-out: % controlled, Py. or., 100 ppm
Description: as §1, §2, §3
6) Py.or.; Pyricalaria oryzae

[3] = tested on: Botryosphaeria dothidea Macrophoma sp.; conditions: Botryosphaeria dothidea, read-out: % controlled, Bo.do (Ma.)
Description: as §1, §2, §3
4) Bo.do(Ma); Botryosphaeria dothidea Macrophoma sp.

[4] = tested on: Botry tris cinerea; conditions: read-out: % controlled, Bo ci.
Description: as §1, §2, §3
10) Bo.ci.; Botry tris cinerea

[5] = tested on: Alternaria mali; conditions: Alternaria mali, read-out: % controlled, Al.
Description: as §1, §2, §3

[6] = tested on: Rhizopus sp.; conditions: Rhizopus, read-out: % controlled, Rhi. sp.
Description: as §1, §2, §3

[7] = tested on: Physalospora baccae; conditions: read-out: % controlled, Phy ba.
Description: as §1, §2, §3
3) Phy. ba.; Physalospora baccae

[8] = tested on: Glomerella cingulata; conditions: Colletotrichum gloeosporioides, read-out: % controlled, Glo.
Description: as §1, §2, §3
5) Glo.; Glomerella cingulata

[9] = tested on: Fusarium moniliforme
Description: as §1, §2, §3
8) Fu.mo.; Fusarium moniliforme

[10] = tested on: Phytophthora capsisi; conditions: Phytophthora, read-out: % controlled, Phy ca.
Description: as §1, §2, §3
2) Phy. ca.; Phytophthora capsisi

SMILES	inhibition of growth at 50 ppm [1]	inhibition of growth at 100 ppm [1]	inhibition of growth at 50 ppm [2]	inhibition of growth at 100 ppm [2]	inhibition of growth at 50 ppm [3]	inhibition of growth at 100 ppm [3]	inhibition of growth at 50 ppm [4]	inhibition of growth at 100 ppm [4]	inhibition of growth at 50 ppm [5]	inhibition of growth at 100 ppm [5]	inhibition of growth at 50 ppm [6]	inhibition of growth at 100 ppm [6]	inhibition of growth at 50 ppm [7]	inhibition of growth at 100 ppm [7]	inhibition of growth at 50 ppm [8]	inhibition of growth at 100 ppm [8]	% controlled, Fu. mo. ([9]; 50 ppm)	% controlled, Fu. mo. ([9]; 100 ppm)	inhibition of growth at 50 ppm [10]	inhibition of growth at 100 ppm [10]
CCOc1ccc([Si](C)(Cn2cncn2)C[Si](C)(C)c2ccc(F)cc2)cc1 (centres unmarked) [2-(4-ethoxyphenyl)-4-(4-fluorophenyl)-2,4-dimethyl-2,4-disila-1-(1H-1,2,4-triazol-1-yl)pentane]	74%	89%	64%	64%	40%	46%	0%	0%	38%	44%	29%	32%	28%	28%	67%	69%	41%	45%	9%	9%
C=CC[Si](C)(Cn1cncn1)C[Si](CC=C)(c1ccccc1)c1ccc(F)cc1 (centres unmarked) [6-(4-fluorophenyl)-4-methyl-6-phenyl-4,6-disila-4-(1H-1,2,4-triazol-1-ylmethyl)-1,8-nonadiene]	96%	96%	90%	90%	79%	79%	60%	70%	55%	92%	50%	50%	82%	82%	80%	85%	60%	66%	65%	70%
C=CC[Si](C)(Cn1cncn1)C[Si](CC=C)(c1ccc(F)cc1)c1ccc(F)cc1 (centres unmarked) [6,6-bis(4-fluorophenyl)-4-methyl-4,6-disila-4-(1H-1,2,4-triazol-1-ylmethyl)-1,8-nonadiene]	75%	87%	85%	100%	100%	100%	86%	100%	78%	100%	100%	100%	60%	80%	100%	100%	100%	100%	21%	100%
C[Si](C)(C[Si](Cn1cncn1)(c1ccc(F)cc1)c1ccc(F)cc1)c1ccc(Cl)cc1 [4-(4-chlorophenyl)-2,2-bis(4-fluorophenyl)-4-methyl-2,4-disila-1-(1H-1,2,4-triazol-1-yl)pentane]	100%	100%	76%	87%	76%	87%	76%	80%	32%	34%	78%	89%	80%	100%	87%	90%	45%	56%	10%	12%
C=CC[Si](C)(Cn1cncn1)C[Si](CC=C)(c1ccccc1)c1ccc(-c2ccccc2)cc1 (centres unmarked) [4-methyl-6-phenyl-6-(4-phenylphenyl)-4,6-disila-4-(1H-1,2,4-triazol-1-ylmethyl)-1,8-nonadiene]	80%	100%	100%	100%	100%	100%	77%	100%	72%	100%	40%	56%	84%	100%	100%	100%	100%	100%	38%	60%
C[Si](C)(C[Si](Cn1cncn1)(c1ccc(F)cc1)c1ccc(F)cc1)c1ccc(-c2ccccc2)cc1 [2,2-bis(4-fluorophenyl)-4-(4-phenylphenyl)-4-methyl-2,4-disila-1-(1H-1,2,4-triazol-1-yl)pentane]	65%	67%	54%	57%	47%	49%	18%	23%	46%	46%	29%	29%	28%	32%	71%	73%	41%	41%	6%	9%
C[Si](C)(C[Si](C)(Cn1cncn1)c1ccc(Cl)cc1)c1ccc(Cl)cc1 (centres unmarked) [2,4-bis(4-chlorophenyl)-2,4-dimethyl-2,4-disila-1-(1H-1,2,4-triazol-1-yl)pentane]	28%	42%	27%	27%	80%	82%	33%	41%	54%	69%	31%	40%	34%	37%	70%	76%	48%	57%	16%	22%
C[Si](C)(C)C[Si](C)(Cn1cncn1)c1ccc(F)cc1 (centres unmarked) [2-(4-fluorophenyl)-2,4,4-trimethyl-2,4-disila-1-(1H-1,2,4-triazol-1-yl)pentane]	90%	90%	100%	100%	69%	74%	81%	83%	78%	81%	49%	56%	56%	72%	–	–	62%	66%	20%	31%
